Reference: ChEMBL document CHEMBL1158337, “Synthesis and bioassay of a new class of heterocycles pyrrolyl oxadiazoles/thiadiazoles/triazoles” (Eur J Med Chem, 2009)
Converted amounts (≈) assume the structure as drawn.

Columns and labels:
Klebsiella pneumoniae [1] = assay: Antibacterial activity against Klebsiella pneumoniae after […] by microdilution susceptibility method; format: functional
Aspergillus niger [2] = assay: Antifungal activity against Aspergillus niger at 200 ug/disk after 48 hrs by agar disc-diffusion method; format: functional; conditions: read-out: IZ
Klebsiella pneumoniae [3] = assay: Antibacterial activity against Klebsiella pneumoniae at 200 ug/disk after 24 hrs by agar disc-diffusion method; format: functional; conditions: read-out: IZ
Bacillus subtilis [4] = assay: Antibacterial activity against Bacillus subtilis at 100 ug/disk after 24 hrs by agar disc-diffusion method; format: functional; conditions: read-out: IZ
Aspergillus niger [5] = assay: Antifungal activity against Aspergillus niger at 100 ug/disk after 48 hrs by agar disc-diffusion method; format: functional; conditions: read-out: IZ
Curvularia lunata [6] = assay: Antifungal activity against Curvularia lunata at 200 ug/disk after 48 hrs by agar disc-diffusion method; format: functional; conditions: read-out: IZ
Staphylococcus aureus [7] = assay: Antibacterial activity against Staphylococcus aureus at 200 ug/disk after 24 hrs by agar disc-diffusion method; format: functional; conditions: read-out: IZ
Bacillus subtilis [8] = assay: Antibacterial activity against Bacillus subtilis at 200 ug/disk after 24 hrs by agar disc-diffusion method; format: functional; conditions: read-out: IZ
Curvularia lunata [9] = assay: Antifungal activity against Curvularia lunata after 48 hrs by microdilution susceptibility method; format: functional
Escherichia coli [10] = assay: Antibacterial activity against Escherichia coli at 100 ug/disk after 24 hrs by agar disc-diffusion method; format: functional; conditions: read-out: IZ
Escherichia coli [11] = assay: Antibacterial activity against Escherichia coli after 24 hrs by microdilution susceptibility method; format: functional
Fusarium solani [12] = assay: Antifungal activity against Fusarium solani at 100 ug/disk after 48 hrs by agar disc-diffusion method; format: functional; conditions: read-out: IZ
Fusarium solani [13] = assay: Antifungal activity against Fusarium solani after 48 hrs by microdilution susceptibility method; format: functional
Bacillus subtilis [14] = assay: Antibacterial activity against Bacillus subtilis after 24 hrs by microdilution susceptibility method; format: functional
Staphylococcus aureus [15] = assay: Antibacterial activity against Staphylococcus aureus after 24 hrs by microdilution susceptibility method; format: functional
Escherichia coli [16] = assay: Antibacterial activity against Escherichia coli at 200 ug/disk after 24 hrs by agar disc-diffusion method; format: functional; conditions: read-out: IZ
Klebsiella pneumoniae [17] = assay: Antibacterial activity against Klebsiella pneumoniae at 100 ug/disk after 24 hrs by agar disc-diffusion method; format: functional; conditions: read-out: IZ
Fusarium solani [18] = assay: Antifungal activity against Fusarium solani at 200 ug/disk after 48 hrs by agar disc-diffusion method; format: functional; conditions: read-out: IZ
Aspergillus niger [19] = assay: Antifungal activity against Aspergillus niger after 48 hrs by microdilution susceptibility method; format: functional
Curvularia lunata [20] = assay: Antifungal activity against Curvularia lunata at 100 ug/disk after 48 hrs by agar disc-diffusion method; format: functional; conditions: read-out: IZ
Staphylococcus aureus [21] = assay: Antibacterial activity against Staphylococcus aureus at 100 ug/disk after 24 hrs by agar disc-diffusion method; format: functional; conditions: read-out: IZ
A549 = assay: Cytotoxicity against human A549 cells upto 100 uM after 72 hrs by MTT assay in presence of 10% fetal bovine serum; format: functional, cell-based
[22] = Cytotoxicity against mink CCL64 cells upto 100 uM after 72 hrs by MTT assay in presence of 0.2% fetal bovine serum; format: cell-based; conditions: neovison vison, ccl64, 72 h

MIC (Klebsiella pneumoniae [1]) [µg/mL]	MIC (Curvularia lunata [9]) [µg/mL]	MIC (Fusarium solani [13]) [µg/mL]	MIC (Bacillus subtilis [14]) [µg/mL]	MIC (Aspergillus niger [19]) [µg/mL]	SMILES	zone of inhibition at 200 µg/disc (Aspergillus niger [2]) [mm]	zone of inhibition at 200 µg/disc (Klebsiella pneumoniae [3]) [mm]	zone of inhibition at 100 µg/disc (Bacillus subtilis [4]) [mm]	zone of inhibition at 100 µg/disc (Aspergillus niger [5]) [mm]	zone of inhibition at 200 µg/disc (Curvularia lunata [6]) [mm]	zone of inhibition at 200 µg/disc (Staphylococcus aureus [7]) [mm]	zone of inhibition at 200 µg/disc (Bacillus subtilis [8]) [mm]	zone of inhibition at 100 µg/disc (Escherichia coli [10]) [mm]	zone of inhibition at 100 µg/disc (Fusarium solani [12]) [mm]	zone of inhibition at 200 µg/disc (Escherichia coli [16]) [mm]	zone of inhibition at 100 µg/disc (Klebsiella pneumoniae [17]) [mm]	zone of inhibition at 200 µg/disc (Fusarium solani [18]) [mm]	zone of inhibition at 100 µg/disc (Curvularia lunata [20]) [mm]	zone of inhibition at 100 µg/disc (Staphylococcus aureus [21]) [mm]	also measured
50 (≈ 115 µM)	12.5 (≈ 28.8 µM)	50 (≈ 115 µM)	50 (≈ 115 µM)	25 (≈ 57.6 µM)	Nn1c(S)nnc1CS(=O)(=O)c1c[nH]cc1S(=O)(=O)c1ccc(Cl)cc1	37	28	34	34	41	35	38	23	35	25	26	40	38	32	MIC (Escherichia coli [11]): 50 µg/mL (≈ 115 µM); MIC (Staphylococcus aureus [15]): 12.5 µg/mL (≈ 28.8 µM)
–	–	–	–	–	O=S(=O)(Cc1nnc(S)o1)c1c[nH]cc1S(=O)(=O)c1ccc(Cl)cc1	18	13	14	15	20	17	18	10	18	12	11	21	17	14	–
–	–	–	–	–	Cc1ccc(S(=O)(=O)c2c[nH]cc2S(=O)(=O)Cc2nnc(S)n2N)cc1	36	23	25	34	35	28	27	20	29	24	21	33	28	24	–
–	–	–	–	–	Cc1ccc(S(=O)(=O)c2c[nH]cc2S(=O)(=O)Cc2nnc(S)s2)cc1	24	19	17	21	24	17	19	18	25	20	16	27	22	16	–
100 (≈ 250 µM)	100 (≈ 250 µM)	100 (≈ 250 µM)	100 (≈ 250 µM)	100 (≈ 250 µM)	Nn1c(S)nnc1CS(=O)(=O)c1c[nH]cc1S(=O)(=O)c1ccccc1	34	22	31	30	36	32	35	22	33	26	21	36	34	28	MIC (Escherichia coli [11]): 100 µg/mL (≈ 250 µM); Activity (A549): Not toxic; MIC (Staphylococcus aureus [15]): 25 µg/mL (≈ 62.6 µM); Activity [22]: Non-toxic
–	–	–	–	–	O=S(=O)(Cc1nnc(S)o1)c1c[nH]cc1S(=O)(=O)c1ccccc1	20	16	11	15	21	15	13	14	18	17	13	20	17	12	Activity (A549): Not toxic; Activity [22]: Non-toxic
200 (≈ 459 µM)	100 (≈ 229 µM)	100 (≈ 229 µM)	200 (≈ 459 µM)	200 (≈ 459 µM)	O=S(=O)(Cc1nnc(S)s1)c1c[nH]cc1S(=O)(=O)c1ccc(Cl)cc1	28	28	28	26	25	30	32	22	26	27	23	31	23	25	MIC (Escherichia coli [11]): 200 µg/mL (≈ 459 µM); MIC (Staphylococcus aureus [15]): 100 µg/mL (≈ 229 µM)
–	–	–	–	–	O=S(=O)(Cc1nnc(S)s1)c1c[nH]cc1S(=O)(=O)c1ccccc1	29	21	21	24	29	20	23	16	25	20	17	27	28	18	Activity (A549): Not toxic; Activity [22]: Non-toxic
–	–	–	–	–	Cc1ccc(S(=O)(=O)c2c[nH]cc2S(=O)(=O)Cc2nnc(S)o2)cc1	21	13	12	17	18	14	16	11	16	14	11	19	15	11	–

SMILES	MIC (Klebsiella pneumoniae [1]) [µg/mL]	MIC (Curvularia lunata [9]) [µg/mL]	MIC (Fusarium solani [13]) [µg/mL]	MIC (Bacillus subtilis [14]) [µg/mL]	MIC (Aspergillus niger [19]) [µg/mL]	zone of inhibition at 200 µg/disc (Aspergillus niger [2]) [mm]	zone of inhibition at 200 µg/disc (Klebsiella pneumoniae [3]) [mm]	zone of inhibition at 100 µg/disc (Bacillus subtilis [4]) [mm]	zone of inhibition at 100 µg/disc (Aspergillus niger [5]) [mm]	zone of inhibition at 200 µg/disc (Curvularia lunata [6]) [mm]	zone of inhibition at 200 µg/disc (Staphylococcus aureus [7]) [mm]	zone of inhibition at 200 µg/disc (Bacillus subtilis [8]) [mm]	zone of inhibition at 100 µg/disc (Escherichia coli [10]) [mm]	zone of inhibition at 100 µg/disc (Fusarium solani [12]) [mm]	zone of inhibition at 200 µg/disc (Escherichia coli [16]) [mm]	zone of inhibition at 100 µg/disc (Klebsiella pneumoniae [17]) [mm]	zone of inhibition at 200 µg/disc (Fusarium solani [18]) [mm]	zone of inhibition at 100 µg/disc (Curvularia lunata [20]) [mm]	zone of inhibition at 100 µg/disc (Staphylococcus aureus [21]) [mm]	also measured
O=C(O)c1cn(C2CC2)c2cc(N3CCNCC3)c(F)cc2c1=O [CIPROFLOXACIN]	6.25 (≈ 18.9 µM)	–	–	6.25 (≈ 18.9 µM)	–	–	42	36	–	–	38	42	40	–	45	37	–	–	34	–
CC(=O)N1CCN(c2ccc(OCC3COC(Cn4ccnc4)(c4ccc(Cl)cc4Cl)O3)cc2)CC1 (configuration not stated) [KETOCONAZOLE]	–	6.25 (≈ 11.8 µM)	12.5 (≈ 23.5 µM)	–	6.25 (≈ 11.8 µM)	39	–	–	36	44	–	–	–	38	–	–	42	41	–	–
